Source: PubChem BioAssay (NCI)
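96-well plates; 48 h exposure; 5 concentrations. Endpoints by linear interpolation between flanking doses. Not reached: highest tested concentration assigned. The concentration for full growth arrest is given as TGI.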

Assays:
Assay in all cases: NCI anticancer screen, dose series, 48 h
[1] = system: UO-31 renal
[2] = system: K-562 leukemia
[3] = system: MOLT-4 leukemia
[4] = system: TK-10 renal
[5] = system: NCI-H460 lung
[6] = system: SF-268 CNS
[7] = system: U251 CNS
[8] = system: UACC-62 melanoma
[9] = system: OVCAR-4 ovarian
[10] = system: UACC-257 melanoma
[11] = system: KM12 colon
[12] = system: NCI-H522 lung
[13] = system: HOP-62 NSCLC
[14] = system: HOP-92 NSCLC
[15] = system: MCF7 breast
[16] = system: DU-145 prostate
[17] = system: BT-549 breast

Structure (SMILES)	TGI [1]	TGI [2]	TGI [3]	TGI [4]	TGI [5]	TGI [6]	TGI [7]	TGI [8]	TGI [9]	TGI [10]	TGI [11]	TGI [12]	TGI [13]	TGI [14]	TGI [15]	TGI [16]	TGI [17]
COc1ccc([C@@H]2CC(=O)NCCCNCCCCNCCCN2)cc1	> 100 µM	> 100 µM	> 100 µM	> 100 µM	> 100 µM	> 100 µM	> 100 µM	> 100 µM	> 100 µM	> 100 µM	> 100 µM	> 100 µM	> 100 µM	> 100 µM			
CN1CCC(C(=O)NNc2ccccc2)CC1	24.4 µM		> 100 µM	> 89.2 µM	> 100 µM	> 100 µM	> 100 µM	> 33.7 µM	> 100 µM	> 89.2 µM	> 77.8 µM	> 100 µM	> 86.1 µM	> 100 µM			
CC(C)(O)/C=C\P(C)(=O)c1ccccc1 (stereo unspecified)		> 100 µM		> 100 µM	> 100 µM	> 100 µM	> 100 µM	> 100 µM	> 100 µM	> 100 µM	> 100 µM	> 100 µM	> 100 µM	> 100 µM	> 100 µM	> 100 µM	
COc1cc(C2=C(C)[C@@H]3CN(CC=C3c3ccc(Cl)cc3)C2)c(S(=O)(=O)O)cc1OC	> 100 µM	> 100 µM	> 100 µM	> 100 µM		> 100 µM	> 100 µM	> 100 µM	> 100 µM	> 100 µM	> 100 µM	> 100 µM	> 100 µM	> 100 µM		> 100 µM	> 100 µM
CCc1cccc(CC)c1Nc1nc2c(s1)C(=O)c1ccccc1C2=O	29.2 µM	> 100 µM	> 100 µM	36.6 µM	34.9 µM	41.7 µM	29.8 µM	32.3 µM		37.8 µM	41 µM	83.3 µM	30.2 µM	44.7 µM	52 µM	45.3 µM	
Cc1ccc(/C=N/Nc2cc(C)c3ccccc3n2)s1	> 100 µM	39.2 µM	45.1 µM	> 100 µM		> 100 µM	43 µM	> 100 µM	> 100 µM	50.7 µM	38.5 µM		30.8 µM	93.8 µM	39.6 µM		42 µM
CN/C=C(/c1ccc(OC)cc1)C(O)c1ccc(OC)c(OC)c1 (stereo unspecified)	> 100 µM	> 100 µM	> 100 µM	> 100 µM	> 100 µM		> 100 µM	> 100 µM	> 100 µM	> 100 µM	> 100 µM	> 100 µM	> 100 µM	> 100 µM			
COCOc1cc(OC)c(Br)cc1C/C(=N/O)C(=O)OC	> 100 µM	> 100 µM	> 100 µM	> 100 µM	> 100 µM	> 100 µM	> 100 µM	> 100 µM	> 100 µM	> 100 µM	> 100 µM	> 100 µM	> 100 µM		> 100 µM	> 100 µM	> 100 µM
CS(=O)(=O)N1CC(CCl)c2ccc(NCCN)cc21 (stereo unspecified)	> 100 µM	> 100 µM	> 100 µM	> 100 µM	> 100 µM	> 100 µM	> 100 µM		> 100 µM	> 100 µM	> 100 µM	> 100 µM	32.1 µM	74.6 µM	> 100 µM	> 100 µM	
CC(=O)/C=C(/C=N/O)c1ccccc1	> 100 µM	> 100 µM	> 100 µM	> 100 µM	> 100 µM	> 100 µM	> 100 µM	> 100 µM	> 100 µM	> 100 µM	> 100 µM	> 100 µM	> 100 µM		> 100 µM		> 100 µM
COC(=O)c1ccc(/C=C2\Cc3ccccc3C2=O)cc1	> 100 µM	> 100 µM	> 100 µM	> 100 µM	> 100 µM	> 100 µM	> 100 µM	> 100 µM	> 100 µM	> 100 µM	> 100 µM	> 100 µM	> 100 µM		> 100 µM	> 100 µM	> 100 µM
CN(C(=O)[C@@H](NC(=O)OC(C)(C)C)c1ccccc1)[C@H]1CCCC[C@@H]1N1CCCC1	> 100 µM	> 100 µM	> 100 µM	> 100 µM		> 100 µM	> 100 µM	> 100 µM	> 100 µM	> 100 µM	> 100 µM	> 100 µM	> 100 µM		> 100 µM	> 100 µM	> 100 µM
COC(=O)CCCC(=O)NC1=C(Nc2ccccc2)C(=O)c2ccccc2C1=O	46.1 µM	47.3 µM	45.5 µM	49.7 µM	33.7 µM	96.3 µM	29.3 µM	11.9 µM	37.1 µM	26.4 µM	20.2 µM	35.3 µM		73.6 µM	32.1 µM	29.4 µM	
COC(=O)/C=C\[C@@H]1[C@H](C)N1S(=O)(=O)c1ccc(C)cc1 (stereo partly specified)		> 100 µM	> 100 µM	> 100 µM	> 100 µM	> 100 µM	> 100 µM	> 100 µM	> 100 µM	> 100 µM		> 100 µM	> 100 µM		> 100 µM	> 100 µM	> 100 µM
O=C1NC(=O)[C@@H](OCC2CCCCC2)[C@@H]2OCC3OC(C(O)C3O)C12 (stereo partly specified)			> 100 µM	> 100 µM	> 100 µM	> 100 µM		> 100 µM	> 100 µM	> 100 µM	> 100 µM		> 100 µM		> 100 µM	> 100 µM	
O=S(Nc1ccccc1)c1ccc(-c2ccccc2)cc1 (stereo unspecified)	> 100 µM	> 100 µM	> 100 µM	> 100 µM	> 100 µM	> 100 µM	> 100 µM	> 100 µM	> 100 µM	> 100 µM	> 100 µM	> 100 µM	> 100 µM		> 100 µM	> 100 µM	> 100 µM
